In experiment [1] the target is T1, human TRPV1 (Homo sapiens (Human), UniProt Q8NER1). The experiment is described as follows: Capsaicin Activation Assay (intracellular Ca2+, FLIPR). The note with it: recombinant HEK293 cells expressing hTRPV1, 50 nM capsaicin. Format: cell-based. Summed up:
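Ca2+ fluorescence was recorded by FLIPR every 1 to 5 seconds in HEK293 cells, clonally selected for stable human TRPV1 expression and plated one day ahead. Test compounds came as serial dilutions of 10 mM DMSO stocks.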

Experiment [2] addresses T1, human TRPV1. The experiment is described as follows: Acid Activation Assay (pH 5.0, intracellular Ca2+, FLIPR). Format: cell-based. The note with it: percentage of the maximal pH 5.0-induced response remaining; recombinant HEK293 hTRPV1 cells; maximum concentration tested 37.5 μM. Summed up:
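Readout: peak [Ca2+]i fluorescence over baseline on FLIPR, expressed as percentage remaining of the maximal pH 5.0-evoked signal. Stable hTRPV1-HEK293 cells with Calcium-4 dye received compound (12 half-log concentrations, maximum 37.5 μM) 3 min before acidic pH 5.0 buffer.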

Results on 25 compounds are retold here after patent publication US8969325B2, “TRPV1 antagonists” (AbbVie Inc., priority 2011, dated 2015).

pIC50: −log10 of the molar value. Some results are limits rather than exact numbers.

T1 sequence (Q8NER1 whole entry): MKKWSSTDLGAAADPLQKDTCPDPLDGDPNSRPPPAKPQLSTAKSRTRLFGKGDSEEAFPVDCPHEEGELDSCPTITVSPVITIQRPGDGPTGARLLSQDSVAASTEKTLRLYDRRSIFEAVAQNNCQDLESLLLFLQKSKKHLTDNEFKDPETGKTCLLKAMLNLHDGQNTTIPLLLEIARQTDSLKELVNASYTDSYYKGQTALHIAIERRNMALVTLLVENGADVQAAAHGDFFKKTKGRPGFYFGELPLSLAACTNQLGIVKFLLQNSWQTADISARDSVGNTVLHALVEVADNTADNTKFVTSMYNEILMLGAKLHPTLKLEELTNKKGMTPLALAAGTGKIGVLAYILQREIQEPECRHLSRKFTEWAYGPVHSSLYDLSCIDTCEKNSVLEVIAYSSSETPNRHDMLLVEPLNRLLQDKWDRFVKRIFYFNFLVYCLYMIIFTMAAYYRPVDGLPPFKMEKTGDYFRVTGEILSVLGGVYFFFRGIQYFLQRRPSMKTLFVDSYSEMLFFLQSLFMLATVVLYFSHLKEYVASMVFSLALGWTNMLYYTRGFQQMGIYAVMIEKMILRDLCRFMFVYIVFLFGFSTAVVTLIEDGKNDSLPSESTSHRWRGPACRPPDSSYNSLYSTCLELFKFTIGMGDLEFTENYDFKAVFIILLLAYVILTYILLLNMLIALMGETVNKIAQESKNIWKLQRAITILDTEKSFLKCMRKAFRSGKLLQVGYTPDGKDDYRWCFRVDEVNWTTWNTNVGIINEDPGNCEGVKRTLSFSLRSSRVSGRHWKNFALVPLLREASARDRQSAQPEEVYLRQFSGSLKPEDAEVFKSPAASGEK

Broadly, the pIC50 is −log10 of the IC50, conventionally taken in molar units. Regarding `CCC1(CC)C[C@@H](NC(=O)Nc2ccc3c(c2)N(C)C(=O)CC3)c2ccc(C(F)(F)F)cc2O1` [Example 261, 1-[(4R)-2,2-diethyl-7-(trifluoromethyl)-3,4-dihydro-2H-chromen-4-yl]-3-(1-methyl-2-oxo-1,2,3,4-tetrahydroquinolin-7-yl)urea], in experiment [1], the pIC50 is 6.66. Also, the “human TRPV1 H^+ (max % remain)” value in experiment [2] turned out to be 70%.
For `Cn1c(=O)ccc2c(NC(=O)N[C@@H]3CC(CF)(CF)Oc4c3ccc(Cl)c4F)cccc21` [Example 21, 1-[(4R)-7-chloro-8-fluoro-2,2-bis(fluoromethyl)-3,4-dihydro-2H-chromen-4-yl]-3-(1-methyl-2-oxo-1,2-dihydroquinolin-5-yl)urea], in that order: 7.59 and 48%.
In the same order, the values of `CN1C(=O)CCc2ccc(NC(=O)N[C@@H]3CC(CF)(CF)Oc4c(F)cc(F)cc43)cc21` [Example 268, 1-[(4R)-6,8-difluoro-2,2-bis(fluoromethyl)-3,4-dihydro-2H-chromen-4-yl]-3-(1-methyl-2-oxo-1,2,3,4-tetrahydroquinolin-7-yl)urea] are 5.92 and 66%.
With `Cn1c(=O)ccc2c(NC(=O)N[C@@H]3CC(C)(C)Oc4c3ccc(F)c4F)cccc21` [Example 81, 1-[(4R)-7,8-difluoro-2,2-dimethyl-3,4-dihydro-2H-chromen-4-yl]-3-(1-methyl-2-oxo-1,2-dihydroquinolin-5-yl)urea], the pIC50 in experiment [1] is 7.28. Moreover, the “human TRPV1 H^+ (max % remain)” value in experiment [2] came to 39%.
In the same order, the values of `CN1C(=O)NCc2c(NC(=O)N[C@@H]3CC(C)(C)Oc4cc(C(F)(F)F)ccc43)cccc21` [Example 150, 1-[(4R)-2,2-dimethyl-7-(trifluoromethyl)-3,4-dihydro-2H-chromen-4-yl]-3-(1-methyl-2-oxo-1,2,3,4-tetrahydroquinazolin-5-yl)urea] are 7.80 and 20%.
For the compound `CN1C(=O)CCc2ccc(NC(=O)N[C@@H]3CC(C)(C)Oc4cc(Cl)ccc43)cc21` [Example 277, 1-[(4R)-7-chloro-2,2-dimethyl-3,4-dihydro-2H-chromen-4-yl]-3-(1-methyl-2-oxo-1,2,3,4-tetrahydroquinolin-7-yl)urea], the pIC50 in experiment [1] was 5.38. In addition, in experiment [2], the “human TRPV1 H^+ (max % remain)” value turned out to be 33%.
For `Cn1c(=O)ccc2c(NC(=O)N[C@@H]3CC(C)(C)Oc4ccccc43)cccc21` [Example 77, 1-[(4R)-2,2-dimethyl-3,4-dihydro-2H-chromen-4-yl]-3-(1-methyl-2-oxo-1,2-dihydroquinolin-5-yl)urea], in that order: 7.39 and 58%.
Turning to `CCC1(CC)C[C@@H](NC(=O)Nc2cccc3c2CNC(=O)N3C)c2cc(F)ccc2O1` [Example 155, 1-[(4R)-2,2-diethyl-6-fluoro-3,4-dihydro-2H-chromen-4-yl]-3-(1-methyl-2-oxo-1,2,3,4-tetrahydroquinazolin-5-yl)urea], the pIC50 in experiment [1] is 7.80. Besides, the “human TRPV1 H^+ (max % remain)” value in experiment [2] was 20%.
In the same order, the values of `CCC1(CC)C[C@@H](NC(=O)Nc2ccc3c(c2)NC(=O)CO3)c2ccc(C(F)(F)F)cc2O1` [Example 103, 1-[(4R)-2,2-diethyl-7-(trifluoromethyl)-3,4-dihydro-2H-chromen-4-yl]-3-(3-oxo-3,4-dihydro-2H-1,4-benzoxazin-6-yl)urea] are 6.96 and 75%.
For the compound `CN1C(=O)CCc2ccc(NC(=O)N[C@@H]3CC(C)(C)Oc4cc(C(F)(F)F)ccc43)cc21` [Example 265, 1-[(4R)-2,2-dimethyl-7-(trifluoromethyl)-3,4-dihydro-2H-chromen-4-yl]-3-(1-methyl-2-oxo-1,2,3,4-tetrahydroquinolin-7-yl)urea], the pIC50 in experiment [1] is 6.18. Besides, the “human TRPV1 H^+ (max % remain)” value in experiment [2] is reported as 53%.
In the same order, the values of `CN1C(=O)CCc2ccc(NC(=O)N[C@@H]3CC(C)(C)Oc4cc(Br)ccc43)cc21` [Example 297, 1-[(4R)-7-bromo-2,2-dimethyl-3,4-dihydro-2H-chromen-4-yl]-3-(1-methyl-2-oxo-1,2,3,4-tetrahydroquinolin-7-yl)urea] are 6.89 and 67%.
In the same order, the values of `CC1(C)C[C@H](NC(=O)Nc2ccc3c(c2)NC(=O)CO3)c2cc(F)ccc2O1` [Example 123, 1-[(4S)-6-fluoro-2,2-dimethyl-3,4-dihydro-2H-chromen-4-yl]-3-(3-oxo-3,4-dihydro-2H-1,4-benzoxazin-6-yl)urea] are under 4.42 and 94%.
In the same order, the values of `O=C1COc2ccc(NC(=O)N[C@@H]3CCOc4cc(C(F)(F)F)ccc43)cc2N1` [Example 121, 1-(3-oxo-3,4-dihydro-2H-1,4-benzoxazin-6-yl)-3-[(4R)-7-(trifluoromethyl)-3,4-dihydro-2H-chromen-4-yl]urea] are under 4.42 and 107%.
For the compound `O=C(Nc1ccc2c(c1)NC(=O)N(CCO)C2)N[C@@H]1CCOc2ccccc21` [Example 308, 1-[(4R)-3,4-dihydro-2H-chromen-4-yl]-3-[3-(2-hydroxyethyl)-2-oxo-1,2,3,4-tetrahydroquinazolin-7-yl]urea], the pIC50 in experiment [1] was 7.17. Further, the “human TRPV1 H^+ (max % remain)” value in experiment [2] turned out to be 3%.
With `O=C(Nc1ccc2c(c1)NC(=O)N(CCO)C2)N[C@@H]1CCOc2c1cccc2C(F)(F)F` [Example 53, 1-[3-(2-hydroxyethyl)-2-oxo-1,2,3,4-tetrahydroquinazolin-7-yl]-3-[(4R)-8-(trifluoromethyl)-3,4-dihydro-2H-chromen-4-yl]urea], the pIC50 in experiment [1] was 5.74. Also, the “human TRPV1 H^+ (max % remain)” value in experiment [2] is reported as 1%.
Consider `O=C(Nc1ccc2c(c1)NC(=O)C(N1CCOCC1)C2)N[C@@H]1CC(CF)(CF)Oc2cc(Cl)ccc21` (stereo partly drawn) [Example 300, 1-[(4R)-7-chloro-2,2-bis(fluoromethyl)-3,4-dihydro-2H-chromen-4-yl]-3-[3-(morpholin-4-yl)-2-oxo-1,2,3,4-tetrahydroquinolin-7-yl]urea], for which, in experiment [1], the pIC50 was 7.21. Further, the “human TRPV1 H^+ (max % remain)” value in experiment [2] was determined as 75%.
For `CN1C(=O)NCc2c(NC(=O)N[C@@H]3C[C@@](C)(CF)Oc4cc(Cl)ccc43)cccc21` [Example 14, 1-[(2S,4R)-7-chloro-2-(fluoromethyl)-2-methyl-3,4-dihydro-2H-chromen-4-yl]-3-(1-methyl-2-oxo-1,2,3,4-tetrahydroquinazolin-5-yl)urea], in that order: 7.20 and 23%.
In the same order, the values of `CN1C(=O)NCc2c(NC(=O)N[C@@H]3CC(CF)(CF)Oc4ccccc43)cccc21` [Example 9, 1-[(4R)-2,2-bis(fluoromethyl)-3,4-dihydro-2H-chromen-4-yl]-3-(1-methyl-2-oxo-1,2,3,4-tetrahydroquinazolin-5-yl)urea] are 6.52 and 30%.
For `CN1Cc2ccc(NC(=O)N[C@@H]3CC(CF)(CF)Oc4c(F)cccc43)cc2NC1=O` [Example 198, 1-[(4R)-8-fluoro-2,2-bis(fluoromethyl)-3,4-dihydro-2H-chromen-4-yl]-3-(3-methyl-2-oxo-1,2,3,4-tetrahydroquinazolin-7-yl)urea], in that order: 6.46 and 55%.
For the compound `CN1C(=O)NCc2c(NC(=O)N[C@@H]3C[C@](C)(C(F)F)Oc4cc(Cl)ccc43)cccc21` [Example 10, 1-[(2R,4R)-7-chloro-2-(difluoromethyl)-2-methyl-3,4-dihydro-2H-chromen-4-yl]-3-(1-methyl-2-oxo-1,2,3,4-tetrahydroquinazolin-5-yl)urea], the pIC50 in experiment [1] was 7.77. In addition, the “human TRPV1 H^+ (max % remain)” value in experiment [2] is listed as 19%.
In the same order, the values of `O=C1CCc2ccc(NC(=O)N[C@@H]3CC(CF)(CF)Oc4ccc(F)cc43)cc2N1` [Example 213, 1-[(4R)-6-fluoro-2,2-bis(fluoromethyl)-3,4-dihydro-2H-chromen-4-yl]-3-(2-oxo-1,2,3,4-tetrahydroquinolin-7-yl)urea] are 6.77 and 42%.
With `O=C(Nc1cccc2[nH]c(=O)ccc12)N[C@@H]1CC(CF)(CF)Oc2cc(Cl)ccc21` [Example 99, 1-[(4R)-7-chloro-2,2-bis(fluoromethyl)-3,4-dihydro-2H-chromen-4-yl]-3-(2-oxo-1,2-dihydroquinolin-5-yl)urea], the pIC50 in experiment [1] is 7.04. In experiment [2], the “human TRPV1 H^+ (max % remain)” value amounted to 0%.
In the same order, the values of `CN(CCO)C1Cc2ccc(NC(=O)N[C@@H]3CC(CF)(CF)Oc4cc(Cl)ccc43)cc2NC1=O` (stereo partly drawn) [Example 304, 1-[(4R)-7-chloro-2,2-bis(fluoromethyl)-3,4-dihydro-2H-chromen-4-yl]-3-{3-[(2-hydroxyethyl)(methyl)amino]-2-oxo-1,2,3,4-tetrahydroquinolin-7-yl}urea] are 6.64 and 0%.
Turning to `CN1C(=O)NCc2c(NC(=O)N[C@@H]3CCOc4cc(F)ccc43)cccc21` [Example 159, 1-[(4R)-7-fluoro-3,4-dihydro-2H-chromen-4-yl]-3-(1-methyl-2-oxo-1,2,3,4-tetrahydroquinazolin-5-yl)urea], the pIC50 in experiment [1] was 6.22. Besides, the “human TRPV1 H^+ (max % remain)” value in experiment [2] was found to be 21%.
For `CN1C(=O)NCc2c(NC(=O)N[C@@H]3CC(CF)(CF)Oc4c(Cl)cccc43)cccc21` [Example 148, 1-[(4R)-8-chloro-2,2-bis(fluoromethyl)-3,4-dihydro-2H-chromen-4-yl]-3-(1-methyl-2-oxo-1,2,3,4-tetrahydroquinazolin-5-yl)urea], in experiment [1], the pIC50 was 7.00. Further, the “human TRPV1 H^+ (max % remain)” value in experiment [2] is listed as 33%.
